{
  "source": "patent US20240090506A1",
  "about": "“SURFACE MODIFICATION TO REGULATE PLANT GROWTH” (BIND-X GMBH, priority 2020, published 2024)",
  "system": "Plantago lanceolate (ribwort plantain) and Poa annua (annual meadow grass)",
  "experiment": "Pot test with solid (powdered) alkali silicates or mixtures: weed coverage rate, degree of efficiency = weed penetration resistance (Example 2)",
  "format": "in vivo",
  "details": "in the dosage used in the mixtures",
  "method": "The experiment was carried out in the laboratory in plant pots with a volume of 450 cm^3. The application area was 78.5 cm^2. The soil substrate was a sifted land soil. Humus (humic soil) was used as a nutrient source for the desired plant. […] On top of the humic soil, 250 g of sifted land soil was placed. Both soil substrates were free of weed growth prior to treatment. Both soils contained minimal residues of endemic weed seeds or inflowing seeds. These present seeds were not sufficient for efficient weed growth. […] For this purpose, the weeds were worked into the top soil layer in a depth of 2-4 mm. Different alkali silicate powders were used in this experiment, which are specified in detail below. Hardeners and/or performance modifiers were added, if applicable. The solid formulations were mixed and then applied homogeneously to the soil surface. […] The coverage rate was determined by manual visual assessment of the plant pots at the specified times, as described in example 1. […] From this in turn the degree of efficiency according to Abbott was calculated as follows: Degree of efficiency=[coverage rate control(day x)−coverage rate product(day x)]/coverage rate control(day x)*100 Furthermore, the quality of the formed layer was observed regularly with respect to crack formation. […]",
  "data": [
    {"smiles": "CC(=O)[O-].CC(=O)[O-].[Ca+2]", "note": "[calcium acetate]", "values": [
      {"measurement": "weed penetration resistance of the performance modifier alone", "value": "An effect is observed only at the beginning of the experiment"}
    ]}
  ]
}
